Data as given in PubChem BioAssay AID1648 (Sanford-Burnham Center for Chemical Genomics, 2009).
Active and inactive are the calls of the source. The rule behind the calls is not given here.

Each compound was assayed against Serine/threonine-protein kinase mTOR (Homo sapiens) (UniProt P42345) (assay: mTOR FRB domain ligand binding – biophysical, NMR (AID 1648)). Conditions: NMR binding to FRB domain, chemical shift.
Sequence of Serine/threonine-protein kinase mTOR (Homo sapiens) (P42345 2015-2114): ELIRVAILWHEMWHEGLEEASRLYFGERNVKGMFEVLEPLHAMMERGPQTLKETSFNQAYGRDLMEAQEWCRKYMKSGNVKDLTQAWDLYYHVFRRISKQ
CCCc1nc2ccccc2c2nc(N)nn12 was tested, and the Kd was > 4 mM (inactive).
In the case of CCSc1nc(C)c(CC)c(C)c1C(N)=O, the Kd is reported as > 4 mM (inactive).
For COC(=O)CC1=Nc2ccccc2NC(=O)C1, the Kd was > 4 mM (inactive).
For CCCNC(=O)CSc1ncccc1C(=O)O, the Kd was > 4 mM (inactive).
With O=C(O)CN1CCNCC1 the Kd was > 4 mM (inactive).
With COCC(=O)Nc1nc2ccc(C)cc2s1 the Kd was > 4 mM (inactive).
With COc1cccc(C(=O)Nc2c(C)n[nH]c2C)c1 the Kd was > 4 mM (inactive).
For CCC(CCC(C)[C@H]1CCC2C3CC=C4C[C@@H](O)CC[C@]4(C)C3CC[C@@]21C)C(C)C (stereo partly specified), the Kd was > 4 mM (inactive).
O=[N+]([O-])c1ccc2c(c1)N([O-])C1(CCCCC1)[N+]2=O was tested, and the Kd was > 4 mM (inactive).
c1ccc(SCc2nc(-c3cccnc3)no2)cc1 was tested, and the Kd was > 4 mM (inactive).
For CC(=O)c1ccc(NS(=O)(=O)c2cccc(C)c2)cc1, the Kd was > 4 mM (inactive).
Cc1nnsc1C(=O)O was tested, and the Kd was > 4 mM (inactive).
In the case of CCOC(=O)c1c(C)[nH]c2ccc(O)cc12, the Kd is reported as > 4 mM (inactive).
CC(C)=CCCC1(C)C=Cc2c(O)c3c(c(CC=C(C)C)c2O1)OC12C(=CCCC1C(C)(C)O[C@@]2(C/C=C(\C)C(=O)O)C(=O)O)C3=O (stereo partly specified) was tested, and the Kd was > 4 mM (inactive).
In the case of CCC[C@H]1CC2=C(C[C@@H](CC)CC3=C1C(=O)OC3=O)C(=O)OC2=O, the Kd is reported as > 4 mM (inactive).
With Nc1c(N2CCCC2)cnn(-c2ccccc2)c1=O the Kd was > 4 mM (inactive).
For CNS(=O)(=O)c1cccs1, the Kd was > 4 mM (inactive).
In the case of c1coc(CNc2nc(-c3ccncc3)cs2)c1, the Kd is reported as > 4 mM (inactive).
In the case of OCc1ccccc1O[C@@H]1O[C@H](CO)[C@@H](O)[C@H](O)[C@H]1O, the Kd is reported as > 4 mM (inactive).
In the case of COc1ccc(-c2coc3cc(OC(C)=O)cc(OC(C)=O)c3c2=O)cc1, the Kd is reported as > 4 mM (inactive).
For COC(=O)c1ccc2nccnc2c1, the Kd was > 4 mM (inactive).
With COc1ccc2[nH]c(O)c(NC(C)=O)c2c1 the Kd was > 4 mM (inactive).
With O=C(O)c1ccc(N2CCOCC2)cc1 the Kd was > 4 mM (inactive).
In the case of CC(=O)Nc1ccc(NC(=O)c2ccnn2C)cc1, the Kd is reported as > 4 mM (inactive).
In the case of O=C1CSC(=Nc2cccc(C(=O)O)c2)N1, the Kd is reported as > 4 mM (inactive).
With COc1ccc(-c2cc(=O)c3c(OC)c(OC)c(OC)c(OC)c3o2)cc1OC the Kd was > 4 mM (inactive).
With COc1cc(OC)c2c(=O)c(OC)c(-c3ccc(OC)c(OC)c3)oc2c1 the Kd was > 4 mM (inactive).
In the case of CC(=O)N1CCn2c3c(c(=O)c4cc(C)ccc42)CCC31 (stereo unspecified), the Kd is reported as > 4 mM (inactive).
For Fc1ccc(NC2=NCCS2)cc1Cl, the Kd was > 4 mM (inactive).
In the case of Cc1occc1C(=O)NCc1ccncc1, the Kd is reported as > 4 mM (inactive).
For CC(C)(C)c1ccc(SCC(N)=O)cc1, the Kd was > 4 mM (inactive).
For c1cncc(Nc2nc(-c3ccncc3)cs2)c1, the Kd was > 4 mM (inactive).
C[C@@H]1O[C@@H](O[C@H]2C[C@@H](O)[C@]3(CO)C4C(CC[C@]3(O)C2)[C@@]2(O)CC[C@H](C3=CC(=O)OC3)[C@@]2(C)C[C@H]4O)[C@H](O)[C@H](O)[C@H]1O (stereo partly specified) was tested, and the Kd was > 4 mM (inactive).
In the case of COC(=O)c1ccccc1NC(=O)c1cc[n+]([O-])cc1, the Kd is reported as > 4 mM (inactive).
In the case of OC12C=CC(CC1)CC2, the Kd is reported as > 4 mM (inactive).
For Cc1csc2nc3ccccc3c(=O)n12, the Kd was > 4 mM (inactive).
For COc1ccc(C(=O)CC(=O)O)c2c1C=CC(C)(C)O2, the Kd was > 4 mM (inactive).
For CC1(c2ccncc2)NC(=O)NC1=O (stereo unspecified), the Kd was > 4 mM (inactive).
In the case of Cn1nnc2cc(C(=O)O)ccc21, the Kd is reported as > 4 mM (inactive).
O=C1C2CCCCC2C(=O)N1Cc1cccnc1 (stereo unspecified) was tested, and the Kd was > 4 mM (inactive).
In the case of O=C(Cc1cccs1)Nc1nncs1, the Kd is reported as > 4 mM (inactive).
With COc1ccc(-c2cc(=O)c3ccccc3o2)cc1OC the Kd was > 4 mM (inactive).
O=C(C1CCCCC1)N1CCN(c2ccccc2F)CC1 was tested, and the Kd was > 4 mM (inactive).
With CC(=O)Nc1c(Cl)cnn(-c2ccccc2)c1=O the Kd was > 4 mM (inactive).
In the case of Nc1ccc2c(c1)CCC2=O, the Kd is reported as > 4 mM (inactive).
Nc1[nH]c(=S)[nH]c(=O)c1-c1ccccc1 was tested, and the Kd was > 4 mM (inactive).
COc1cc2c(cc1OC)C1(O)C(=O)c3ccc(O)c(C(=O)O)c3OC1CO2 (stereo unspecified) was tested, and the Kd was > 4 mM (inactive).
CCOC(=O)c1cnc2sccn2c1=O was tested, and the Kd was > 4 mM (inactive).
With CC1(C)N([O-])c2cc([N+](=O)[O-])ccc2[N+]1=O the Kd was > 4 mM (inactive).
Cc1nc2cc(NC(=O)Nc3nccs3)ccc2n1C was tested, and the Kd was > 4 mM (inactive).
With O=C(CSc1ncn[nH]1)c1ccc2c(c1)OCCO2 the Kd was > 4 mM (inactive).
CC1(C)C2CC(=O)[C@]3(C)C(CC[C@@]4(C)[C@H](c5ccoc5)OC(=O)[C@H]5O[C@]543)[C@@]2(C)C=C[C@@H]1O (stereo partly specified) was tested, and the Kd was > 4 mM (inactive).
For Nc1ccccc1C(=O)N1CCNC(=O)C1, the Kd was > 4 mM (inactive).
In the case of CC(=O)Nc1cc(C(F)(F)F)ccc1N1CCOCC1, the Kd is reported as > 4 mM (inactive).
With C=C[C@@H](C1=CC(=O)C(OC)=C(OC)C1=O)c1ccccc1 the Kd was > 4 mM (inactive).
In the case of Cc1cc(C(=O)NCc2cccs2)cs1, the Kd is reported as > 4 mM (inactive).
For Cc1ccccc1NC(=O)c1ccccc1, the Kd was > 4 mM (inactive).
With Cc1occc1C(=O)Nc1nnc(C(F)(F)F)s1 the Kd was > 4 mM (inactive).
Cc1cc(NS(=O)(=O)Cc2ccccc2)no1 was tested, and the Kd was > 4 mM (inactive).
In the case of C=C1CCC2[C@](C)(CO)[C@H](O)CC[C@@]2(C)[C@@H]1C/C=C1/C(=O)OC[C@H]1O (stereo partly specified), the Kd is reported as > 4 mM (inactive).
For c1ccc(SCc2nc(-c3ccccn3)no2)cc1, the Kd was > 4 mM (inactive).
In the case of O=C1CCC([N+](=O)[O-])C(c2ccccc2F)N1 (stereo unspecified), the Kd is reported as > 4 mM (inactive).
C=C(C)[C@H]1CC=C(C(=O)O)CC1 was tested, and the Kd was > 4 mM (inactive).
With Cc1ccc2c(c1)CC[C@H]1CC(=O)CC[C@]21C the Kd was > 4 mM (inactive).
For COC1=CC23CCCN2CCc2cc4c(cc2C3C1O)OCO4 (stereo unspecified), the Kd was > 4 mM (inactive).
With c1cc2n(c1)CCNC2c1ccncc1 (stereo unspecified) the Kd was > 4 mM (inactive).
In the case of O=C(O)CNC(=O)c1ccccc1Cl, the Kd is reported as > 4 mM (inactive).
In the case of COc1c2c(cc3occ(-c4ccc5c(c4)OCO5)c(=O)c13)OC(C)(C)C=C2, the Kd is reported as > 4 mM (inactive).
With Oc1ccccc1C(=S)N1CCCCCC1 the Kd was > 4 mM (inactive).
With Cc1cc(=O)oc2cc(O)c(O)cc12 the Kd was > 4 mM (inactive).
With O=[N+]([O-])c1cccc(-c2c[n+](=O)c3c(n2[O-])CCC3)c1 the Kd was > 4 mM (inactive).
With CCOC(=O)C1C(C=C(C)C)C1(C)C (stereo unspecified) the Kd was > 4 mM (inactive).
For Cc1cc(S(=O)(=O)N2CCOCC2)ccc1F, the Kd was > 4 mM (inactive).
Nc1ncnc(Nc2ccccc2C(F)(F)F)n1 was tested, and the Kd was > 4 mM (inactive).
Nc1c(/C=C2\C=Nc3ccccc32)c(=O)nc2scnn12 was tested, and the Kd was > 4 mM (inactive).
In the case of N/C(=N/O)C1COc2ccccc2O1 (stereo unspecified), the Kd is reported as > 4 mM (inactive).
In the case of O=C1CCCC2C3CC(CN12)[C@@H]1CCCCN1C3 (stereo partly specified), the Kd is reported as > 4 mM (inactive).
With Cn1nc(C(=O)NC2CCCCC2)c2ccccc2c1=O the Kd was > 4 mM (inactive).
With O=C(O)CS(=O)(=O)c1ccccc1 the Kd was > 4 mM (inactive).
For Nc1ccc(NC(=O)c2ccco2)c(Cl)c1, the Kd was > 4 mM (inactive).
For O=C1CC(c2ccccc2)n2ncnc2N1 (stereo unspecified), the Kd was > 4 mM (inactive).
NC(=O)CSc1nc2ncnc(N)c2[nH]1 was tested, and the Kd was > 4 mM (inactive).
For Cc1nnsc1C(=O)Nc1ccccc1[N+](=O)[O-], the Kd was > 4 mM (inactive).
In the case of Oc1cnc2ccccc2c1CN1CCOCC1, the Kd is reported as > 4 mM (inactive).
With CCCCCCCCCCCCCCC(C(=O)OC)C(O)(CC(=O)OC)C(=O)OC (stereo unspecified) the Kd was > 4 mM (inactive).
For Fc1ccc(-c2n[nH]c(=S)n2CC2CCCO2)cc1 (stereo unspecified), the Kd was > 4 mM (inactive).
CSCCNC(C)=O was tested, and the Kd was > 4 mM (inactive).
With O=c1cc(O)n(-c2ccc(F)cc2)c(=S)[nH]1 the Kd was > 4 mM (inactive).
With CN(C)C(=O)CSc1cccc2cccnc12 the Kd was > 4 mM (inactive).
O=C(CSc1ccnc(=O)[nH]1)NCc1ccco1 was tested, and the Kd was > 4 mM (inactive).
In the case of O=S1(=O)CCC(N2CCCCC2)C1 (stereo unspecified), the Kd is reported as > 4 mM (inactive).
For Cn1nc(C(=O)Nc2cccnc2)cc1Cl, the Kd was > 4 mM (inactive).
OCc1csc(-c2cccs2)n1 was tested, and the Kd was > 4 mM (inactive).
Cn1nc(-c2ccccc2)cc1N was tested, and the Kd was > 4 mM (inactive).
COC(=O)c1ccc(/C=C2/NC(=S)NC2=O)cc1 was tested, and the Kd was > 4 mM (inactive).
With CN1C(=O)C(Cc2c[nH]c3ccccc23)C(=O)N(C)C1=O the Kd was > 4 mM (inactive).
COC(=O)c1cc(C)on1 was tested, and the Kd was > 4 mM (inactive).
For Nc1ccc(N2CCOCC2)c(Cl)c1, the Kd was > 4 mM (inactive).
CSc1ccccc1NC(=O)c1cnccn1 was tested, and the Kd was > 4 mM (inactive).
In the case of Nc1oncc1-c1ccccn1, the Kd is reported as > 4 mM (inactive).
For CCOC(=O)C1CCN(c2ccc(C#N)cc2)CC1, the Kd was > 4 mM (inactive).
